Results published in patent US10405547B2, “Substituted cyclic amides as herbicides” (FMC Corporation, priority 2015, dated 2019).

Tests used:
Type in all cases: in vivo
[1] = system: ragweed (common ragweed, Ambrosia elatior); experiment: Test A postemergence, ragweed; settings: visual injury, 0 to 100 scale (0 no effect, 100 complete control), approximately 10 days
Summary of the method: (§1)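 Ratings use a 0–100 scale, where 0 means no effect and 100 means complete control, and come from visual comparison with untreated plants roughly 10 days after treatment. Compounds were applied in a surfactant-containing, non-phytotoxic solvent, either to soil after seeding or to foliage of small seedlings.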

[2] = system: barnyardgrass (Echinochloa crus-galli); experiment: Test A preemergence, barnyardgrass; settings: 0 to 100 scale (0 no effect, 100 complete control)
Summary of the method: as §1

rice (Oryza sativa) = experiment: Test B flooded paddy test, rice; settings: 250 g ai/ha, applied to paddy water, visual rating after 13 to 15 days, scale 0 (no effect) to 100 (complete control)
Summary of the method: (§2)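 Pots were flooded to 3 cm above the soil surface at treatment, compound applied directly to the paddy water, and that depth held throughout. Plants were kept in a greenhouse for 13 to 15 days, then visually rated against untreated controls.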

[3] = system: pigweed (Amaranthus retroflexus); experiment: Test A preemergence, pigweed; settings: 0 to 100 scale (0 no effect, 100 complete control)
Summary of the method: as §1

[4] = system: galium (catchweed bedstraw, Galium aparine); experiment: Test A postemergence, galium; settings: visual injury, 0 to 100 scale (0 no effect, 100 complete control), approximately 10 days
Summary of the method: as §1

corn (Zea mays) = experiment: Test A postemergence, corn; settings: visual injury, 0 to 100 scale (0 no effect, 100 complete control), approximately 10 days
Summary of the method: as §1

[5] = system: ragweed (common ragweed, Ambrosia elatior); experiment: Test A preemergence, ragweed; settings: 0 to 100 scale (0 no effect, 100 complete control)
Summary of the method: as §1

[6] = system: barnyardgrass (Echinochloa crus-galli); experiment: Test B flooded paddy test, barnyardgrass; settings: 250 g ai/ha, applied to paddy water, visual rating after 13 to 15 days, scale 0 (no effect) to 100 (complete control)
Summary of the method: as §2

[7] = system: pigweed (Amaranthus retroflexus); experiment: Test A postemergence, pigweed; settings: visual injury, 0 to 100 scale (0 no effect, 100 complete control), approximately 10 days
Summary of the method: as §1

[8] = system: foxtail, giant (Setaria faberii); experiment: Test A preemergence, giant foxtail; settings: 0 to 100 scale (0 no effect, 100 complete control)
Summary of the method: as §1

[9] = system: ryegrass, Italian (Lolium multiflorum); experiment: Test A preemergence, Italian ryegrass; settings: 0 to 100 scale (0 no effect, 100 complete control)
Summary of the method: as §1

kochia (Kochia scoparia) [10] = experiment: Test A preemergence, kochia; settings: 0 to 100 scale (0 no effect, 100 complete control)
Summary of the method: as §1

[11] = system: barnyardgrass (Echinochloa crus-galli); experiment: Test A postemergence, barnyardgrass; settings: visual injury, 0 to 100 scale (0 no effect, 100 complete control), approximately 10 days
Summary of the method: as §1

kochia (Kochia scoparia) [12] = experiment: Test A postemergence, kochia; settings: visual injury, 0 to 100 scale (0 no effect, 100 complete control), approximately 10 days
Summary of the method: as §1

[13] = system: ducksalad (Heteranthera limosa); experiment: Test B flooded paddy test, ducksalad; settings: 250 g ai/ha, applied to paddy water, visual rating after 13 to 15 days, scale 0 (no effect) to 100 (complete control)
Summary of the method: as §2

[14] = system: ryegrass, Italian (Lolium multiflorum); experiment: Test A postemergence, Italian ryegrass; settings: visual injury, 0 to 100 scale (0 no effect, 100 complete control), approximately 10 days
Summary of the method: as §1

[15] = system: wheat (Triticum aestivum); experiment: Test A postemergence, wheat; settings: visual injury, 0 to 100 scale (0 no effect, 100 complete control), approximately 10 days
Summary of the method: as §1

[16] = system: blackgrass (Alopecurus myosuroides); experiment: Test A postemergence, blackgrass; settings: visual injury, 0 to 100 scale (0 no effect, 100 complete control), approximately 10 days
Summary of the method: as §1

[17] = system: foxtail, giant (Setaria faberii); experiment: Test A postemergence, giant foxtail; settings: visual injury, 0 to 100 scale (0 no effect, 100 complete control), approximately 10 days
Summary of the method: as §1

[18] = system: sedge, umbrella (small-flower umbrella sedge, Cyperus difformis); experiment: Test B flooded paddy test, umbrella sedge; settings: 250 g ai/ha, applied to paddy water, visual rating after 13 to 15 days, scale 0 (no effect) to 100 (complete control)
Summary of the method: as §2

Row | SMILES | Plant response rating, Ragweed ([1]; 125 g ai/ha) | Plant response rating, Ragweed ([1]; 500 g ai/ha) | Plant response rating, Barnyardgrass ([2]; 125 g ai/ha) | Plant response rating, Barnyardgrass ([2]; 500 g ai/ha) | Plant response rating, Rice (Flood) (rice (Oryza sativa)) | Plant response rating, Pigweed ([3]; 125 g ai/ha) | Plant response rating, Pigweed ([3]; 500 g ai/ha) | Plant response rating, Galium ([4]; 125 g ai/ha) | Plant response rating, Galium ([4]; 500 g ai/ha) | Plant response rating, Corn (corn (Zea mays); 125 g ai/ha) | Plant response rating, Corn (corn (Zea mays); 500 g ai/ha) | Plant response rating, Ragweed ([5]; 125 g ai/ha) | Plant response rating, Ragweed ([5]; 500 g ai/ha) | Plant response rating, Barnyardgrass (Flood) [6] | Plant response rating, Pigweed ([7]; 125 g ai/ha) | Plant response rating, Pigweed ([7]; 500 g ai/ha) | Plant response rating, Foxtail, Giant ([8]; 125 g ai/ha) | Plant response rating, Foxtail, Giant ([8]; 500 g ai/ha) | Plant response rating, Ryegrass, Italian ([9]; 125 g ai/ha) | Plant response rating, Ryegrass, Italian ([9]; 500 g ai/ha) | other results
1 | O=C1NCC(c2cccc(OCC3OCCO3)c2)C1C(=O)Nc1ccccc1Cl (stereo not drawn) [Compound 6] | 0 | 0 | 20 | 80 | 0 | 60 | 50 | 0 | 0 | 0 | 20 | 0 | 20 | 0 | 0 | 0 | 70 | 90 | 0 | 0 | Plant response rating, Kochia (kochia (Kochia scoparia) [10]; 125 g ai/ha): 0; Plant response rating, Kochia (kochia (Kochia scoparia) [10]; 500 g ai/ha): 0; Plant response rating, Barnyardgrass ([11]; 125 g ai/ha): 0; Plant response rating, Barnyardgrass ([11]; 500 g ai/ha): 70; Plant response rating, Kochia (kochia (Kochia scoparia) [12]; 125 g ai/ha): 0; Plant response rating, Kochia (kochia (Kochia scoparia) [12]; 500 g ai/ha): 0; Plant response rating, Ducksalad (Flood) [13]: 0; Plant response rating, Ryegrass, Italian ([14]; 125 g ai/ha): 0; Plant response rating, Ryegrass, Italian ([14]; 500 g ai/ha): 0; Plant response rating, Wheat ([15]; 125 g ai/ha): 0; Plant response rating, Wheat ([15]; 500 g ai/ha): 20; Plant response rating, Blackgrass ([16]; 125 g ai/ha): 0; Plant response rating, Blackgrass ([16]; 500 g ai/ha): 20; Plant response rating, Foxtail, Giant ([17]; 125 g ai/ha): 0; Plant response rating, Foxtail, Giant ([17]; 500 g ai/ha): 70; Plant response rating, Sedge, Umbrella (Flood) [18]: 0
2 | O=C1NCC(c2cccc(OCC3OCCO3)c2)C1C(=O)Nc1cccc(F)c1F (stereo not drawn) [Compound 7] | 0 | 20 | 60 | 90 | 0 | 60 | 60 | 20 | 40 | 0 | 20 | 0 | 0 | 0 | 0 | 0 | 90 | 90 | 30 | 30 | Plant response rating, Kochia (kochia (Kochia scoparia) [10]; 125 g ai/ha): 0; Plant response rating, Kochia (kochia (Kochia scoparia) [10]; 500 g ai/ha): 0; Plant response rating, Barnyardgrass ([11]; 125 g ai/ha): 40; Plant response rating, Barnyardgrass ([11]; 500 g ai/ha): 70; Plant response rating, Kochia (kochia (Kochia scoparia) [12]; 125 g ai/ha): 0; Plant response rating, Kochia (kochia (Kochia scoparia) [12]; 500 g ai/ha): 0; Plant response rating, Ducksalad (Flood) [13]: 75; Plant response rating, Ryegrass, Italian ([14]; 125 g ai/ha): 0; Plant response rating, Ryegrass, Italian ([14]; 500 g ai/ha): 20; Plant response rating, Wheat ([15]; 125 g ai/ha): 0; Plant response rating, Wheat ([15]; 500 g ai/ha): 40; Plant response rating, Blackgrass ([16]; 125 g ai/ha): 0; Plant response rating, Blackgrass ([16]; 500 g ai/ha): 40; Plant response rating, Foxtail, Giant ([17]; 125 g ai/ha): 20; Plant response rating, Foxtail, Giant ([17]; 500 g ai/ha): 70; Plant response rating, Sedge, Umbrella (Flood) [18]: 0
